From patent publication US8901313B2, “6,5-heterocyclic propargylic alcohol compounds and uses therefor” (Genentech, Inc., priority 2011, dated 2014)
pKi: −log10 of the molar value.

Target: T1, nuclear factor-kappa B (NF-kB)-inducing kinase (NIK) (Homo sapiens, UniProt Q99558)
T1 construct: made in house; host or cells: baculovirus-infected insect cells
Experiment: NIK Enzyme Inhibition Assay (Transcreener ADP assay)
Type: biochemical
Conditions: purified NIK 0.2-1 nM, 10 uM ATP, fluorescence polarization, Morrison's quadratic equation; read-out: inhibitory value (Ki) for NIK

T1 sequence (Q99558 whole entry): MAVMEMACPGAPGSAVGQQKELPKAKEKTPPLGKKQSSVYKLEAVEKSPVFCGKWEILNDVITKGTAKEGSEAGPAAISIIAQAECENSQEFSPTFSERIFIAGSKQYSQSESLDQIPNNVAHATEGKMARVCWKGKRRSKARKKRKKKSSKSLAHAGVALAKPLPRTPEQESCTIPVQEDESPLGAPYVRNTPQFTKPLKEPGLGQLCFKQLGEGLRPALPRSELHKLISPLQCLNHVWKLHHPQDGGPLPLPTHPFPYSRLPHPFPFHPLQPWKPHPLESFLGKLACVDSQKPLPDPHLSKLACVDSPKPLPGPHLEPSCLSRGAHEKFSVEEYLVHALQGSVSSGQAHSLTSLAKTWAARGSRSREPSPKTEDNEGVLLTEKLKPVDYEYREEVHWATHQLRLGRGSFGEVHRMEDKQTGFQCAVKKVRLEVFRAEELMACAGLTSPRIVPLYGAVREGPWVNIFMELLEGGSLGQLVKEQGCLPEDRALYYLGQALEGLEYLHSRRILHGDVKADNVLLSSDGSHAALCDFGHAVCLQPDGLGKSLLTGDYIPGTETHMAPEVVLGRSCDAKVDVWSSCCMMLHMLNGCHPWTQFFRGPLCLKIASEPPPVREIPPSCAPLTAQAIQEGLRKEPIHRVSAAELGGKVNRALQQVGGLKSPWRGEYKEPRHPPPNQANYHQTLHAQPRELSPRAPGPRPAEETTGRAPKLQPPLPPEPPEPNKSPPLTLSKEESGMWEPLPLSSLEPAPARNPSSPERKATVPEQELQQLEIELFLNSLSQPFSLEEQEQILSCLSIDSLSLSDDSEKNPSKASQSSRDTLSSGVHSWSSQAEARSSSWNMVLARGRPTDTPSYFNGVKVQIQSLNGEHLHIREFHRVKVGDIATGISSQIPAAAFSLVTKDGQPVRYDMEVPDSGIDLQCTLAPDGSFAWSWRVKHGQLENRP

Compound | pKi
CN(C)C(=O)c1nn(-c2ccnc(N)n2)c2cc(C#CC(C)(O)c3cc(CO)on3)ccc12 (stereo not drawn) [Example T1.1-26, 1-(2-aminopyrimidin-4-yl)-6-[3-hydroxy-3-[5-(hydroxymethyl)isoxazol-3-yl]but-1-ynyl]-N,N-dimethyl-indazole-3-carboxamide] | 9.00
Cc1cc(C(C)(O)C#Cc2ccc3nc(OCCO)n(-c4ccnc(N)n4)c3c2)no1 (stereo not drawn) [Example T1.1-27, 4-[3-(2-aminopyrimidin-4-yl)-2-(2-hydroxyethoxy)benzimidazol-5-yl]-2-(5-methylisoxazol-3-yl)but-3-yn-2-ol] | 8.70
CCOc1nc2ccc(C#CC3(O)CCn4ccnc43)cc2n1-c1ccnc(N)n1 (stereo not drawn) [Example T1.1-28, 7-[2-[3-(2-aminopyrimidin-4-yl)-2-ethoxy-benzimidazol-5-yl]ethynyl]-5,6-dihydropyrrolo[1,2-a]imidazol-7-ol] | 8.70
Cc1cc(C(C)(O)C#Cc2ccc3nc(OCC(F)(F)F)n(-c4ccnc(N)n4)c3c2)no1 (stereo not drawn) [Example T1.1-29, 4-[3-(2-aminopyrimidin-4-yl)-2-(2,2,2-trifluoroethoxy)benzimidazol-5-yl]-2-(5-methylisoxazol-3-yl) but-3-yn-2-ol] | 8.70
Cc1nc(C(C)(O)C#Cc2ccc3c(C(=O)N(C)C)nn(-c4ccnc(N)n4)c3c2)no1 (stereo not drawn) [Example T1.1-30, 1-(2-aminopyrimidin-4-yl)-6-[3-hydroxy-3-(5-methyl-1,2,4-oxadiazol-3-yl)but-1-ynyl]-N,N-dimethyl-indazole-3-carboxamide] | 8.70
Cc1nc([C@](C)(O)C#Cc2ccc3c(c2)n(-c2ccnc(N)n2)c(=O)n3C)no1 [Example T1.1-31, 3-(2-aminopyrimidin-4-yl)-5-[(3R)-3-hydroxy-3-(5-methyl-1,2,4-oxadiazol-3-yl)but-1-ynyl]-1-methyl-benzimidazol-2-one] | 8.70
Cc1cc(C(C)(O)C#Cc2ccc3c(c2)n(-c2ccnc(N)n2)c(=O)n3CC2CC2)no1 (stereo not drawn) [Example T1.1-32, 3-(2-aminopyrimidin-4-yl)-1-(cyclopropylmethyl)-5-[3-hydroxy-3-(5-methylisoxazol-3-yl)but-1-ynyl] benzimidazol-2-one] | 8.70
Cc1nn(-c2ccnc(N)n2)c2cc(C#CC(C)(O)c3cc(CO)on3)ccc12 (stereo not drawn) [Example T1.1-33, 4-[1-(2-aminopyrimidin-4-yl)-3-methyl-indazol-6-yl]-2-[5-(hydroxy-methyl)isoxazol-3-yl]but-3-yn-2-ol] | 8.70
Cc1nc([C@](C)(O)C#Cc2ccc3c(C(=O)N4CC(O)C4)nn(-c4ccnc(N)n4)c3c2)no1 [Example T1.1-34, [1-(2-aminopyrimidin-4-yl)-6-[(3R)-3-hydroxy-3-(5-methyl-1,2,4-oxadiazol-3-yl)but-1-ynyl]indazol-3-yl]-(3-hydroxyazetidin-1-yl)methanone] | 8.70
Cc1nc([C@](C)(O)C#Cc2ccc3c(C(C)(C)F)nn(-c4ccnc(N)n4)c3c2)no1 [Example T1.1-35, (2R)-4-[1-(2-aminopyrimidin-4-yl)-3-(1-fluoro-1-methyl-ethyl)indazol-6-yl]-2-(5-methyl-1,2,4-oxadiazol-3-yl) but-3-yn-2-ol] | 8.70
Cc1nc(C(C)(O)C#Cc2ccc3c(CC(C)(O)C(F)F)nn(-c4ccnc(N)n4)c3c2)no1 (stereo not drawn) [Example T1.1-36, 3-[1-(2-aminopyrimidin-4-yl)-6-[3-hydroxy-3-(5-methyl-1,2,4-oxadiazol-3-yl)but-1-ynyl]indazol-3-yl]-1,1-difluoro-2-methyl-propan-2-ol] | 8.70
Cc1cc([C@](C)(O)C#Cc2ccc3c(CN4CCOCC4)nn(-c4ccnc(N)n4)c3c2)no1 [Example T1.1-38, (2R)-4-[1-(2-aminopyrimidin-4-yl)-3-(morpholinomethyl)indazol-6-yl]-2-(5-methylisoxazol-3-yl)but-3-yn-2-ol] | 8.70
CN(C)C(=O)c1nn(-c2ccnc(N)n2)c2cc(C#CC3(O)CCn4ccnc43)ccc12 (stereo not drawn) [Example T1.1-39, 1-(2-aminopyrimidin-4-yl)-6-[2-(7-hydroxy-5,6-dihydropyrrolo[1,2-a]imidazol-7-yl)ethynyl]-N,N-dimethyl-indazole-3-carboxamide] | 8.70
Cc1nc([C@](C)(O)C#Cc2ccc3c(CO)nn(-c4ccnc(N)n4)c3c2)no1 [Example T1.1-40, (2R)-4-[1-(2-aminopyrimidin-4-yl)-3-(hydroxymethyl)indazol-6-yl]-2-(5-methyl-1,2,4-oxadiazol-3-yl)but-3-yn-2-ol] | 8.70
Nc1nccc(-n2nc(C(=O)N3CCOCC3)c3ccc(C#CC4(O)CCn5ccnc54)cc32)n1 (stereo not drawn) [Example T1.1-41, [1-(2-aminopyrimidin-4-yl)-6-[2-(7-hydroxy-5,6-dihydropyrrolo[1,2-a]imidazol-7-yl)ethynyl]indazol-3-yl]-morpholino-methanone] | 8.70
Cc1cc(C(C)(O)C#Cc2ccc3nc(OC4CCOCC4)n(-c4ccnc(N)n4)c3c2)no1 (stereo not drawn) [Example T1.1-42, 4-[3-(2-aminopyrimidin-4-yl)-2-tetrahydropyran-4-yloxy-benzimidazol-5-yl]-2-(5-methylisoxazol-3-yl)but-3-yn-2-ol] | 8.52
CC(O)(C#Cc1ccc2c(CN3CC(F)(F)C3)nn(-c3ccnc(N)n3)c2c1)c1ncccn1 (stereo not drawn) [Example T1.1-43, 4-[1-(2-aminopyrimidin-4-yl)-3-[(3,3-difluoroazetidin-1-yl)methyl]indazol-6-yl]-2-pyrimidin-2-yl-but-3-yn-2-ol] | 8.52

Compound | pKi
COCCOc1nc2ccc(C#C[C@@](C)(O)c3cc(C)on3)cc2n1-c1ccnc(N)n1 [Example T1.1-44, (2R)-4-[3-(2-aminopyrimidin-4-yl)-2-(2-methoxyethoxy)benzimidazol-5-yl]-2-(5-methylisoxazol-3-yl)but-3-yn-2-ol] | 8.52
Cc1nn(-c2ccnc(N)n2)c2cc(C#CC(C)(O)c3nc[nH]n3)ccc12 (stereo not drawn) [Example T1.1-45, 4-[1-(2-aminopyrimidin-4-yl)-3-methyl-indazol-6-yl]-2-(1H-1,2,4-triazol-3-yl)but-3-yn-2-ol] | 8.52
CC(O)(C#Cc1ccc2nc(OCC(F)(F)F)n(-c3ccnc(N)n3)c2c1)c1ncccn1 (stereo not drawn) [Example T1.1-46, 4-[3-(2-aminopyrimidin-4-yl)-2-(2,2,2-trifluoroethoxy)benzimidazol-5-yl]-2-pyrimidin-2-yl-but-3-yn-2-ol] | 8.52
Cc1nc([C@](C)(O)C#Cc2ccc3nc(OC4COC4)n(-c4ccnc(N)n4)c3c2)no1 [Example T1.1-47, (2R)-4-[3-(2-aminopyrimidin-4-yl)-2-(oxetan-3-yloxy)benzimidazol-5-yl]-2-(5-methyl-1,2,4-oxadiazol-3-yl)but-3-yn-2-ol] | 8.52
CCOc1nc2ccc(C#CC(C)(O)c3ncccn3)cc2n1-c1ccnc(N)n1 (stereo not drawn) [Example T1.1-48, 4-[3-(2-aminopyrimidin-4-yl)-2-ethoxy-benzimidazol-5-yl]-2-pyrimidin-2-yl-but-3-yn-2-ol] | 8.52
CC(O)(C#Cc1ccc2c(CF)nn(-c3ccnc(N)n3)c2c1)c1ncccn1 (stereo not drawn) [Example T1.1-49, 4-[1-(2-aminopyrimidin-4-yl)-3-(fluoromethyl)indazol-6-yl]-2-pyrimidin-2-yl-but-3-yn-2-ol] | 8.40
Cc1nc([C@](C)(O)C#Cc2ccc3c(C(C)(C)O)nn(-c4nc(N)ncc4Cl)c3c2)no1 [Example T1.1-50, (2R)-4-[1-(2-amino-5-chloro-pyrimidin-4-yl)-3-(1-hydroxy-1-methyl-ethyl)indazol-6-yl]-2-(5-methyl-1,2,4-oxadiazol-3-yl) but-3-yn-2-ol] | 8.40
COCCOc1nc2ccc(C#C[C@@](C)(O)c3noc(C)n3)cc2n1-c1ccnc(N)n1 [Example T1.1-51, (2R)-4-[3-(2-aminopyrimidin-4-yl)-2-(2-methoxyethoxy)benzimidazol-5-yl]-2-(5-methyl-1,2,4-oxadiazol-3-yl)but-3-yn-2-ol] | 8.40
Cc1nn(-c2ccnc(N)n2)c2cc(C#CC(C)(O)CF)ccc12 (stereo not drawn) [Example T1.1-52, 4-[1-(2-aminopyrimidin-4-yl)-3-methyl-indazol-6-yl]-1-fluoro-2-methyl-but-3-yn-2-ol] | 8.40
CC(O)(C#Cc1ccc2c(C(=O)N3CCOCC3)nn(-c3ccnc(N)n3)c2c1)c1ncccn1 (stereo not drawn) [Example T1.1-54, [1-(2-aminopyrimidin-4-yl)-6-(3-hydroxy-3-pyrimidin-2-yl-but-1-ynyl)indazol-3-yl]-morpholino-methanone] | 8.40
CC(=O)N1CC(Oc2nc3ccc(C#CC(C)(O)c4cc(C)on4)cc3n2-c2ccnc(N)n2)C1 (stereo not drawn) [Example T1.1-55, 1-[3-[1-(2-aminopyrimidin-4-yl)-6-[3-hydroxy-3-(5-methylisoxazol-3-yl)but-1-ynyl]benzimidazol-2-yl]oxyazetidin-1-yl]ethanone] | 8.40
CC(C)(O)c1nn(-c2ccnc(N)n2)c2cc(C#CC(C)(O)c3ccccn3)ccc12 (stereo not drawn) [Example T1.1-56, 4-[1-(2-aminopyrimidin-4-yl)-3-(1-hydroxy-1-methyl-ethyl)indazol-6-yl]-2-(2-pyridyl)but-3-yn-2-ol] | 8.40
CC(C)(O)c1nn(-c2ccnc(N)n2)c2cc(C#CC(C)(O)c3ncccn3)ccc12 (stereo not drawn) [Example T1.1-57, 4-[1-(2-aminopyrimidin-4-yl)-3-(1-hydroxy-1-methyl-ethyl)indazol-6-yl]-2-pyrimidin-2-yl-but-3-yn-2-ol] | 8.30
COCCOc1nc2ccc(C#CC(C)(O)c3ncccn3)cc2n1-c1ccnc(N)n1 (stereo not drawn) [Example T1.1-58, 4-[3-(2-aminopyrimidin-4-yl)-2-(2-methoxyethoxy)benzimidazol-5-yl]-2-pyrimidin-2-yl-but-3-yn-2-ol] | 8.30
Cc1cc(C(C)(O)C#Cc2ccc3c(C(O)(C4CCOCC4)C4CC4)nn(-c4ccnc(N)n4)c3c2)no1 (stereo not drawn) [Example T1.1-59, 4-[1-(2-aminopyrimidin-4-yl)-3-(cyclopropyl-hydroxy-tetrahydropyran-4-yl-methyl)indazol-6-yl]-2-(5-methyl-isoxazol-3-yl)but-3-yn-2-ol] | 8.30
CC(O)(C#Cc1ccc2nc(OCCO)n(-c3ccnc(N)n3)c2c1)c1ncccn1 (stereo not drawn) [Example T1.1-60, 4-[3-(2-aminopyrimidin-4-yl)-2-(2-hydroxyethoxy)benzimidazol-5-yl]-2-pyrimidin-2-yl-but-3-yn-2-ol] | 8.22
